Measurements as given in US11195594B2, “Method for selecting anticancer agent based on protein damage information of individual to prevent anticancer agent side effects” (CIPHEROME, INC., priority 2015, dated 2021).

Assay: Side effect profile of pediatric leukemia patients during busulfan preconditioning for bone marrow transplantation
Assay type: in vivo, human
Experimental: Firstly, an analysis was conducted on 146 pediatric leukemia patients showing warning signs of serious side effects during treatment with the anticancer agent busulfan (Myleran, GlaxoSmithKline, Busulfex IV, Otsuka America Pharmaceutical, Inc.) to remove bone marrow as a preconditioning for bone marrow transplantation.

[1] = of 146 pediatric leukemia patients treated with busulfan

For `CS(=O)(=O)OCCCCOS(C)(=O)=O` [Busulfan], the “Number of patients: AUC 170 or higher” value (human, in vivo) was 71, the “Number of patients: Hepatic veno-occlusive disease” value (human, in vivo) was 18 and the “Number of patients: Intermediate toxicity grade 3 or higher” value (human, in vivo) was 11. The “Number of patients: Intermediate toxicity grade 4 or higher” value (human, in vivo) was 1, the “Number of patients: Short-term toxicity grade 3 or higher” value (human, in vivo) was 31 and the “Number of patients: Short-term toxicity grade 4 or higher” value (human, in vivo) was 2. The “Number of patients: Death” value [1] was 36 and the “Number of patients: Toxicity-related death” value [1] was 22.
